# Reference: patent US20070227557A1, “THICKENED SURFACTANT-FREE CLEANSING AND MULTIFUNCTIONAL LIQUID COATING COMPOSITIONS CONTAINING NONREACTIVE ABRASIVE SOLID PARTICLES AND AN ORGANOSILANE QUATERNARY COMPOUND AND METHODS OF USING” (priority 2005, published 2007)
# Experiment: Thickening / thixotropy of aqueous mixtures
# Assay type: physicochemical
# Details: standard test formulation
# Experimental: “thixotropic” or “thixotropically” means, with reference to a thickened composition, when applied to a vertical surface, it will cling until disturbed by wiping or massaging in biomechanical cleansing.
# The sodium dodecylbenzene sulfonate base employed in Examples 34-46 was prepared as follows: 90.07% (Wt.) of deionized water was placed in the blender beaker and 1.104% sodium hydroxide pellets added and the mixture stirred until all sodium hydroxide dissolved. 8.826% of dodecylbenzene sulfonic acid (98% purity) was added slowly with good stirring until all the dodecylbenzene sulfonic acid dissolved (reacted with the sodium hydroxide). The pH of the resulting solution was […]. The final solution contained 9.42% sodium dodecylbenzene sulfonate. Approximately 450 gms of the base, containing 408 gms of water and 42.4 gms of the sodium dodecylbenzene sulfonate, were used in all the examples of TABLE VI. 124 gms of aluminum oxide grit (A2-325 and P-6 grades from Altmatis) were employed in the compositions of TABLE VI.
# The alkyl alcohol ethoxylates were added slowly with good mixing employing a Silverson L4RT-A laboratory mixer with the pump head mixer. As the mixture thickened, addition of the alkyl alcohol ethoxylates was slowed until the thickened mixture had the consistency of whipped cream. If the desired thickening was achieved, it was so noted as “YES”, if not, it was noted as “NO”.
row,Compound,formation of stable thickened compositions
1,CCCCCCCCCCCCc1ccc(S(=O)(=O)[O-])cc1.[Na+] [sodium docecylbenzene sulfonate],did form stable thickened compositions
2,CCCCCCCCCCCCS(=O)(=O)[O-].[Na+] [sodium lauryl (C12) sulfonate],did not result in stable thickened compositions
3,CCCCCCCCS(=O)(=O)[O-].[Na+] [sodium octane sulfonate],did not result in stable thickened compositions
4,sodium alkyl(C11-16) sulfonate,did not result in stable thickened compositions
